Laboratory results: US12275684B2, “Methods for making and using endoxifen” (Atossa Therapeutics, Inc., priority 2017, dated 2025)
Where two headings read alike, the source gives them in different places.

Assay: Placebo controlled, dose escalation pharmacokinetic study of oral (Z)-Endoxifen capsules (serum endoxifen; incl. accumulation ratios and dose linearity)
Type: in vivo, human
Settings: female, human, serum, oral; for concentration at 0.5 h: Day 1 hr 0.5; for concentration at 1 h: Day 1 hr 1; for concentration at 2 h: Day 1 hr 2; for concentration at 3 h: Day 1 hr 3; for concentration at 4 h: Day 1 hr 4; for concentration at 5 h: Day 1 hr 5; for concentration at 8 h: Day 1 hr 8; for concentration at 10 h: Day 1 hr 10; for concentration at 12 h: Day 1 hr 12; for concentration at 24 h: Day 1 hr 24
Source text: An objective of the study was to assess the safety and tolerability of oral (Z)-Endoxifen when administered […] orally as a capsule to healthy female volunteers. A secondary objective was to assess the pharmacokinetics of multiple doses of oral (Z)-Endoxifen in the subjects.
Generally, healthy female volunteers aged ≥18 years and ≤65 years were enrolled. 24 participants were enrolled in 3 cohorts and will be administered study drug orally. Three dose levels of orally administered (Z)-Endoxifen were investigated in 3 cohorts. In each cohort participants were randomized to receive an oral (Z)-Endoxifen or placebo in a blinded fashion. Enteric-resistant capsules used in the study were designed as delayed release capsules to resist rupture for at least 30 minutes, but typically, for about 2 hours, under gastric conditions and then open fully in intestinal fluid (DRCaps; Capsugel, a Lonza Company, USA). Enteric-resistant (Swedish Orange size Zero (0); Capsugel, USA) DRCaps capsules manually filled with 1, 2 or 4 mg of (Z)-endoxifen neat in compliance with GMP requirements were used. Placebo capsules contained microcrystalline cellulose an inert common capsule and tablet excipient.
Each cohort enrolled 8 participants, with 6 participants receiving (Z)-Endoxifen 1 mg capsules orally at 1 mg (Cohort 1), 2 mg (Cohort 2) or 4 mg (Cohort 3) doses and 2 participants receiving matching placebo capsules. In Cohort 1 (Dose Level=1 mg) two participants (sentinels) were dosed 24 hours prior to the remaining participants. One sentinel was dosed with (Z)-Endoxifen and the other with placebo. The remaining six participants in Cohort 1 were dosed as no safety concerns were identified in the sentinel participants. The non-sentinel participants in Cohort 1 were admitted to the clinical research facility at least one day later than the sentinels. There were no sentinels in Cohorts 2 and 3.
Participant engagement in this study was for a period of 56 days. These included a 28 day screening period, and a 7 day post treatment period for Pharmacokinetic (PK) sampling. There were two confinement periods, one at the beginning and one at the end of the dosing periods. Participants were confined to the clinical facility on Days-1 through to Day 2 and Days 21 and 22. If participants were to experience any clinically significant adverse events during the study, they would have been required to remain in the clinical facility for further observation at the discretion of the Principal Investigator (PI).
Healthy female volunteers were screened within 28 days prior to commencement of dosing. Participants were admitted to the clinical facility on Day-1 for up to 3 days. The first dose of (Z)-Endoxifen or placebo capsules was administered on Day 1. Following completion of all safety assessments and sampling for PK analyses, participants were discharged from the clinical facility on Day 2. The first dose on Day 1 was followed by a 6-day treatment free period (Days 2-7). Each participant returned to the clinical facility for PK blood draws and safety assessments during the treatment free period on study Days 4 and 6. On Day 8 participants commenced daily administration of (Z)-Endoxifen capsules or placebo capsules for 14 consecutive days (Days 8-21). Participants were supplied with study drug capsules and asked to self administer daily. Participants visited the clinical facility on Days 11, 14 and 17, prior to dose administration, for PK blood draws and safety assessments. On the morning of Day 21 each participant returned to the clinical facility prior to dose administration and were confined to the facility until Day 22 to allow for the collection of PK blood draws and safety assessments. The Day 21 dose was the last administration of study drug. Participants were discharged from the clinical facility on Day 22 and returned for PK blood draws and safety assessments on study Days 24, 26, and 28. […]

[1] = 1 mg, read-out: Serum concentration, GeoMean
[2] = 1 mg, read-out: Serum concentration, Max
[3] = 1 mg, read-out: Serum concentration, Mean
[4] = 1 mg, read-out: Serum concentration, Median
[5] = 1 mg, read-out: Serum concentration, Min

`CC/C(=C(\c1ccc(O)cc1)c1ccc(OCCNC)cc1)c1ccccc1` [(Z)-Endoxifen, (Z)-4-(1-(4-(2-(methylamino)ethoxy)phenyl)-2-phenylbut-1-enyl) phenol] gave a concentration at 120 h (1 mg, Day 6 Hr 120, read-out: Serum concentration, Min) of 2.68 nM, a concentration at 0.5 h [1] of 3.18 nM and a concentration at 0.5 h [2] of 5.35 nM. For the same compound, the concentration at 0.5 h [3] was 2.68 nM, the concentration at 0.5 h [4] was 2.68 nM and the concentration at 0.5 h [5] was 0 nM. The concentration at 1 h [1] was 3.33 nM, the concentration at 1 h [2] was 8.03 nM and the concentration at 1 h [3] was 3.75 nM. The concentration at 1 h [4] was 2.68 nM, the concentration at 1 h [5] was 2.68 nM and the concentration at 2 h [1] was 17 nM. It also gave a concentration at 2 h [2] of 18.7 nM, a concentration at 2 h [3] of 17.1 nM and a concentration at 2 h [4] of 18.7 nM. For the same compound, the concentration at 2 h [5] was 13.4 nM, the concentration at 3 h [1] was 17.1 nM and the concentration at 3 h [2] was 18.7 nM. For the same compound, the concentration at 3 h [3] was 17.1 nM, the concentration at 3 h [4] was 16.1 nM and the concentration at 3 h [5] was 16.1 nM. For the same compound, the concentration at 4 h [1] was 20.1 nM, the concentration at 4 h [2] was 26.8 nM and the concentration at 4 h [3] was 20.3 nM. For the same compound, the concentration at 4 h [4] was 18.7 nM, the concentration at 4 h [5] was 18.7 nM and the concentration at 5 h [1] was 23.2 nM. For the same compound, the concentration at 5 h [2] was 26.8 nM, the concentration at 5 h [3] was 23.6 nM and the concentration at 5 h [4] was 24.1 nM. For the same compound, the concentration at 5 h [5] was 16.1 nM, the concentration at 8 h [1] was 21.1 nM and the concentration at 8 h [2] was 32.1 nM. The concentration at 8 h [3] was 22 nM, the concentration at 8 h [4] was 21.4 nM and the concentration at 8 h [5] was 13.4 nM. It also gave a concentration at 10 h [1] of 21.6 nM, a concentration at 10 h [2] of 32.1 nM and a concentration at 10 h [3] of 22.5 nM. It also gave a concentration at 10 h [4] of 21.4 nM, a concentration at 10 h [5] of 13.4 nM and a concentration at 12 h [1] of 17.1 nM. The concentration at 12 h [2] was 21.4 nM, the concentration at 12 h [3] was 18.2 nM and the concentration at 12 h [4] was 21.4 nM. The concentration at 12 h [5] was 8.03 nM, the concentration at 24 h [1] was 14.7 nM and the concentration at 24 h [2] was 18.7 nM. It also gave a concentration at 24 h [3] of 15 nM, a concentration at 24 h [4] of 16.1 nM and a concentration at 24 h [5] of 10.7 nM. The AUC(0-inf) (2 mg, Day 1, 2 mg, N 6, read-out: AUC0-inf, GeoMean) was 1080 ng·h/mL.
